The values below come from US20090291071A1, “COMPOSITIONS AND METHODS FOR CONTROLLING LIPID METABOLISM” (priority 2007, published 2009).

Where two headings read alike, the source gives them in different places.

The subject of experiment [1] is lipoprotein. Kind of experiment: Glycation of lipoprotein by sugars. The settings on record: for glycation of the lipoprotein by glucose and D-ribose: combined with glucose or D-ribose, and lipoprotein. The class given is biochemical. From the text:
When dried beer solids, […], Vitamin E and Vitamin C were combined with glucose or D-ribose, and lipoprotein, glycation of the lipoprotein by glucose and D-ribose was inhibited. Similarly when RBC-Vitamin C or Vitamin E were combined with sorbitol and lipoprotein, glycation of the lipoprotein by sorbitol was inhibited.

For the next experiment, the system named is LDL. The settings on record: humans, daily ingestion of 1,200 IU; cited from earlier work.
The subject of experiment [2] is lipoprotein. Kind of experiment: Inhibition of lipoprotein oxidation (heart disease model). The class given is biochemical. Also noted: % Inhibition Vit C Alone: concentration or dose not given beside the values. The source says:
Various combinations of antioxidants were studied to determine synergetic effects on lipoprotein oxidation. […] The antioxidants were used alone and together at micromolar and submolar concentrations to determine additive and […] effects on percentage inhibition of lipoprotein oxidation. A result when used together which is greater than the sum of this effects alone is considered to be a synergistic response. […] (Upper Panel) and Grow C (a natural Vitamin C extract) (Lower Panel).

As for Catechin, the “quantity of L-ascorbic acid remaining” value (0 h (time zero, reference)) was 100%; the “quantity of L-ascorbic acid remaining” value (6 h, test substance 0.01 mg/ml) came to 14.6%; the “quantity of L-ascorbic acid remaining” value (6 h, test substance 0.1 mg/ml) was found to be 16.7%; the “quantity of L-ascorbic acid remaining” value (6 h, test substance 1.0 mg/ml) was determined as 17.7%; the “quantity of L-ascorbic acid remaining” value (20 h, test substance 0.01 mg/ml) came to 0.8%; the “quantity of L-ascorbic acid remaining” value (20 h, test substance 0.1 mg/ml) was 0.8%. In addition, the “quantity of L-ascorbic acid remaining” value runs as follows: (20 h, test substance 1.0 mg/ml) 1.0%; (44 h, test substance 0.01 mg/ml) 1.4%; (44 h, test substance 0.1 mg/ml) 1.0%; (44 h, test substance 1.0 mg/ml) 1.2%; (72 h, test substance 0.01 mg/ml) 2.4%; (72 h, test substance 0.1 mg/ml) 2.0%. Further, where the note is “72 h, test substance 1.0 mg/ml”, the “quantity of L-ascorbic acid remaining” value came to 2.2%. Also, under “tested up to 1.0 mg/ml”, the “inhibition of L-ascorbic acid degradation” value is recorded as “Neither epicatechin (EPC) nor catechin (CAT) showed any inhibitory effects”.

Turning to `Cc1c(C)c2c(c(C)c1O)CC[C@@](C)(CCC[C@H](C)CCC[C@H](C)CCCC(C)C)O2` [E, α-tocopherol], the “glycation of the lipoprotein by glucose and D-ribose” value in the experiment with lipoprotein [1] was “inhibited”. Also, the “glycation of the lipoprotein by sorbitol” value in the experiment with lipoprotein [1] (combined with sorbitol and lipoprotein) is on record as “inhibited”. In the experiment on LDL, the “increase of the (alpha)-tocopherol content of LDL” value was “up to 215%” and the “increase of the resistance of LDL to oxidation” value is not above 175%. Also, the “% Inhibition of E Alone” value in the experiment on lipoprotein [2] (E 25.6 mg) was 10.1%.

As for `O=C1O[C@H]([C@@H](O)CO)C(O)=C1O` [Vit C, ascorbic acid], in the experiment with lipoprotein [1], the “glycation of the lipoprotein by glucose and D-ribose” value is on record as “inhibited”. In addition, the “% Inhibition Vit C Alone” value in the experiment on lipoprotein [2] (line of Weight Ratio Vit C:DBS 0.136:1) is listed as 0%; in the experiment with lipoprotein [2] (line of Weight Ratio Vit C:DBS 0.274:1), 1.2%; in the experiment with lipoprotein [2] (line of Weight Ratio Vit C:DBS 0.343:1), 2.0%; with lipoprotein [2] (line of Weight Ratio Vit C:DBS 0.520:1), 2.6%; in the experiment with lipoprotein [2] (line of Weight Ratio Vit C:DBS 0.680:1), 3.0%.
